Experimental data from patent US8278320B2, “Azabicyclo[2.2.1]heptane compounds as alpha-7 nicotinic acetylcholine receptor ligands” (Bristol-Myers Squibb Company, priority 2009, dated 2012).
Where two headings read alike, the source gives them in different places.

Molecular target: α-7 nicotinic ACh receptor ion channel expressed in mammalian HEK 293 cells (Rattus norvegicus, UniProt Q05941)
Assay: Ca2+-sensitive, fluorescence-based FLIPR assay for α-7 nicotinic acetylcholine receptor channel function (agonist activity)
Type: cell-based
Design: expressed in transfected cells
Settings: Ca2+ flux, HEK-293 cells, Fluo-4
Method: I) α7 Nicotinic Acetycholine Receptor Binding. Membranes were prepared for binding using HEK293 cells stably expressing the rat α7 nicotinic acetycholine receptor (rat α7 nAChR). Cells were homogenized at 4° C. in hypotonic lysis buffer consisting of 10 mM Tris (pH 7.4), 5 mM EDTA and protease inhibitors and centrifuged at 32000×g for 20 minutes. The pellet was washed once in membrane wash buffer consisting of 50 mM Tris (pH 7.4), 1 mM EDTA and protease inhibitors and centrifuged at 32000×g for 20 minutes. This pellet was then resuspended in assay buffer consisting 50 mM KH2PO4 (pH 7.4 at 25° C.), 1 mM EDTA, 0.005% Triton-X 100 and 0.1% (v/v) Sigma Protease Inhibitor Cocktail. Aliquots were then frozen in dry ice/ethanol and kept at −80° C. until the day of the assay. II) A Ca^2+-Sensitive, Fluorescence-Based Assay α-7 for Nicotinic Acetylcholine Receptor Channel Function In Mammalian Cells (“FLIPR”). Summary: Lead compounds are evaluated for agonist activity at α-7, α3β4, α4αβ2, and α1β1δ1ε sub-types of nicotinic ACh receptor ion channels expressed in mammalian HEK 293 cells. Agonist potency and efficacy values are determined from kinetic fluorescence Ca^2+ influx measurements made using a 384 well FLIPR (Fluorescence Image Plate Reader). […] In this assay, channel expressing HEK cell lines seeded in 384 well assay plates are loaded with a membrane permeant fluorescent Ca^2+ indicator dye, whose 510 nm green emission signal increases in response to elevation of intracellular Ca^2+ concentration. The basal fluorescence from the cells is monitored in real time, followed by the acute addition of test compounds.
Materials and Methods: Reagents: The acetomethoxy (AM) ester of the Ca^2+ indicator dye Fluo-4 was obtained from InVitrogen, (Carlsbad, Calif.). Acetylcholine and all buffer constituents were purchased from Sigma Chemical Company, St. Louis, Mo. G418 and Minimal Essential Medium were purchased from InVitrogen Life Technologies, Carlsbad, Calif. Fetal bovine serum was purchased from (InVitrogen, Carlsbad, Calif.).
Cell Culture: HEK-293 cells were grown in Minimal Essential Medium containing 10% (v/v) fetal bovine serum at 37° C. in a 5% CO2 incubator. HEK-293 cells stably expressing the ion channels were grown in the same medium with the addition of 500 μg/ml G418.
Ca^2+ flux assays of Ca^2+ channels expressed in HEK-293 cells: HEK-293 cells expressing the ion channels of interest were plated in 384 well, black-walled, clear-bottomed, poly-D-lysine coated plates at a density of ˜20,000 cells/well in 20 μl of Minimal Essential Medium containing 10% (v/v) fetal bovine serum and incubated for 2 days at 29° C. in a 5% CO2 incubator. Prior to assay, cells were loaded with the Fluo-4 AM ester. […] Dye loading was allowed to proceed for 90 minutes at room temperature at which time the dye loading solution was removed and replaced with 40 μl/well of Hanks buffer. Cells loaded with dye were loaded onto a FLIPR384 (Molecular Devices, Sunnyvale, Calif.). Fluo-4 dye was excited using the 488 nm line of an argon laser. Emission was filtered using a 540+/−30 nm bandpass filter. For evaluation of the effects of test compounds using the Ca^2+ flux assay, compounds to be tested were provided in assay ready plates. For nicotinic receptor ion channel expressing cells, the assay was initiated by the addition of 20 μl/well of Hanks buffer containing test compounds. For all assays, data were collected at 1 Hz for 10 seconds (baseline), at which time the compound containing stimulus buffers are added, and further measurements collected at 0.33 Hz for 3 min.
Data Analysis: The statistical robustness of the nicotinic receptor Ca^2+ flux assays is determined from blanks and totals wells. […] The raw fluorescence units data files generated on the FLIPR plate reader are automatically exported and processed by in-house data analysis tools.

[1] = agonist potency class, read-out: FLIPR α7 activity rating (EC50)
[2] = agonist potency, read-out: FLIPR α7-HI (EC50)
[3] = FLIPR α7-HI (EC50, nM), agonist potency
[4] = FLIPR α7 activity rating (EC50, nM), agonist potency class

Chain of α-7 nicotinic ACh receptor ion channel expressed in mammalian HEK 293 cells (Q05941 23-502): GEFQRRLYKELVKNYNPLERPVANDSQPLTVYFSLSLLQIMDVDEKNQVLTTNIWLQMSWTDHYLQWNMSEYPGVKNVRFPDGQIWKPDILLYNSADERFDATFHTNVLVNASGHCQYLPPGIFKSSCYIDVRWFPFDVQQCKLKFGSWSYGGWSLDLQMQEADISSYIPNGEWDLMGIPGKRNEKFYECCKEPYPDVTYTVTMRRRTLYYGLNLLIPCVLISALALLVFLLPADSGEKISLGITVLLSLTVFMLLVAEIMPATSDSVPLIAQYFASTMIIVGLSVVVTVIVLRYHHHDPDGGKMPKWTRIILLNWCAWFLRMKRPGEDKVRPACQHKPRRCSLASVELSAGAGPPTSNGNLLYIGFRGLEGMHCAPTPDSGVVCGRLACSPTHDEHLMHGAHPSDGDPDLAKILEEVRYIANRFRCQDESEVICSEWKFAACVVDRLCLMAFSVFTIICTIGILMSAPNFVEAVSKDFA

| Compound | EC50 [3] [nM] | EC50 [4] [nM] | also measured |
| --- | --- | --- | --- |
| COc1ccc2nc(NC3=NC[C@@]4(C[N@]5CC[C@H]4C5)O3)sc2c1 (relative stereo) [Example 1, (3R*,4S*)—N-(6-Methoxybenzo[d]thiazol-2-yl)-4′H-1-azaspiro[bicyclo[2.2.1]heptane-3,5′-oxazol]-2′-amine] |  |  | EC50 [1]: 1000 to 100000 nM; EC50 [2]: 411 nM |
| COc1ccc2nc(NC3=NC[C@@]4(C[N@@]5CC[C@@H]4C5)O3)sc2c1 (relative stereo) [Example 2, (3R*,4R*)—N-(6-Methoxybenzo[d]thiazol-2-yl)-4′H-1-azaspiro[bicyclo[2.2.1]heptane-3,5′-oxazol]-2′-amine] |  |  | EC50 [1]: 1000 to 100000 nM |
| Clc1ccc2nc(NC3=NC[C@@]4(C[N@@]5CC[C@@H]4C5)O3)sc2n1 (relative stereo) [Example 3, (3R*,4R*)—N-(5-Chlorothiazolo[5,4-b]pyridin-2-yl)-4′H-1-azaspiro[bicyclo[2.2.1]heptane-3,5′-oxazol]-2′-amine] | 91 | 100 to 1000 |  |
| Fc1ccc2nc(NC3=NC[C@@]4(C[N@@]5CC[C@@H]4C5)O3)sc2n1 (relative stereo) [Example 4, (3R*,4R*)—N-(5-Fluorothiazolo[5,4-b]pyridin-2-yl)-4′H-1-azaspiro[bicyclo[2.2.1]heptane-3,5′-oxazol]-2′-amine] |  | 100 to 1000 |  |
| COc1ccc2nc(NC3=NC[C@@]4(C[N@@]5CC[C@@H]4C5)O3)sc2n1 (relative stereo) [Example 5, (3R*,4R*)—N-(5-Methoxythiazolo[5,4-b]pyridin-2-yl)-4′H-1-azaspiro[bicyclo[2.2.1]heptane-3,5′-oxazol]-2′-amine] | 311 | 1000 to 100000 |  |
| Clc1cnc(NC2=NC[C@@]3(C[N@@]4CC[C@@H]3C4)O2)c(Cl)c1 (relative stereo) [Example 6, (3R*,4R*)—N-(3,5-Dichloropyridin-2-yl)-4′H-1-azaspiro[bicyclo[2.2.1]heptane-3,5′-oxazol]-2′-amine] | 155 | 100 to 1000 |  |
| c1ccc2cc(NC3=NC[C@@]4(C[N@@]5CC[C@@H]4C5)O3)ncc2c1 (relative stereo) [Example 7, (3R*,4R*)—N-(Isoquinolin-3-yl)-4′H-1-azaspiro[bicyclo[2.2.1]heptane-3,5′-oxazol]-2′-amine] |  | < 100 |  |
| c1cnc2sc(NC3=NC[C@@]4(C[N@@]5CC[C@@H]4C5)O3)nc2c1 (relative stereo) [Example 8, (3R*,4R*)—N-(Thiazolo[5,4-b]pyridin-2-yl)-4′H-1-azaspiro[bicyclo[2.2.1]heptane-3,5′-oxazol]-2′-amine] |  | 100 to 1000 |  |
| Cc1cccc(-c2cnc(NC3=NC[C@@]4(C[N@@]5CC[C@@H]4C5)O3)nc2)c1 (relative stereo) [Example 9, (3R*,4R*)—N-(5-m-Tolylpyrimidin-2-yl)-4′H-1-azaspiro[bicyclo[2.2.1]heptane-3,5′-oxazol]-2′-amine] |  |  | EC50 [1]: 1000 to 100000 nM; EC50 [2]: 487 nM |
| COc1ccc(NC2=NC[C@@]3(C[N@@]4CC[C@@H]3C4)O2)nc1 (relative stereo) [Example 10, (3R*,4R*)—N-(5-Methoxypyridin-2-yl)-4′H-1-azaspiro[bicyclo[2.2.1]heptane-3,5′-oxazol]-2′-amine] |  | 100 to 1000 |  |
| c1ccc2cc(NC3=NC[C@@]4(C[N@]5CC[C@H]4C5)O3)ncc2c1 (relative stereo) [Example 16, (3R*,4S*)—N-(Isoquinolin-3-yl)-4′H-1-azaspiro[bicyclo[2.2.1]heptane-3,5′-oxazol]-2′-amine] | 33 | < 100 |  |
| c1cnc2sc(NC3=NC[C@@]4(C[N@]5CC[C@H]4C5)O3)nc2c1 (relative stereo) [Example 17, (3R*,4S*)—N-(Thiazolo[5,4-b]pyridin-2-yl)-4′H-1-azaspiro[bicyclo[2.2.1]heptane-3,5′-oxazol]-2′-amine] |  | < 100 |  |
| c1ccc2cc(NC3=NCC4(CN5CCC4C5)O3)ncc2c1 (single isomer, unassigned) [Example 7a] |  | < 100 |  |
| c1ccc2cc(NC3=NCC4(CN5CCC4C5)O3)ncc2c1 (single isomer, unassigned) [Example 7b] |  | < 100 |  |
| c1cnc2sc(NC3=NCC4(CN5CCC4C5)O3)nc2c1 (single isomer, unassigned) [Example 8a] | 121 | 100 to 1000 |  |
| c1cnc2sc(NC3=NCC4(CN5CCC4C5)O3)nc2c1 (single isomer, unassigned) [Example 8b] |  | < 100 |  |
| c1ccc2cc(NC3=NCC4(CN5CCC4C5)O3)ncc2c1 (single isomer, unassigned) [Example 16a] |  | 1000 to 100000 |  |
| c1ccc2cc(NC3=NCC4(CN5CCC4C5)O3)ncc2c1 (single isomer, unassigned) [Example 16b] |  | < 100 |  |
| c1cnc2sc(NC3=NCC4(CN5CCC4C5)O3)nc2c1 (single isomer, unassigned) [Example 17a] |  | 1000 to 100000 |  |
| c1cnc2sc(NC3=NCC4(CN5CCC4C5)O3)nc2c1 (single isomer, unassigned) [Example 17b] | 35 | < 100 |  |
| c1cncc(-c2cc(NC3=NC[C@@]4(C[N@@]5CC[C@@H]4C5)O3)ncn2)c1 [Example 11, (3R,4R)—N-(6-(Pyridin-3-yl)pyrimidin-4-yl)-4′H-1-azaspiro[bicyclo[2.2.1]heptane-3,5′-oxazol]-2′-amine] | 34 | < 100 |  |
| COc1cc(NC2=NC[C@@]3(C[N@@]4CC[C@@H]3C4)O2)ncn1 [Example 13, (3R,4R)—N-(6-Methoxypyrimidin-4-yl)-4′H-1-azaspiro[bicyclo[2.2.1]heptane-3,5′-oxazol]-2′-amine] |  | 100 to 1000 |  |
| Clc1cnc(NC2=NC[C@@]3(C[N@@]4CC[C@@H]3C4)O2)cn1 [Example 14, (3R,4R)—N-(5-Chloropyrazin-2-yl)-4′H-1-azaspiro[bicyclo[2.2.1]heptane-3,5′-oxazol]-2′-amine] |  | 100 to 1000 |  |
| c1ccc(-c2ccnc(NC3=NC[C@@]4(C[N@@]5CC[C@@H]4C5)O3)n2)cc1 [Example 15, (3R,4R)—N-(4-Phenylpyrimidin-2-yl)-4′H-1-azaspiro[bicyclo[2.2.1]heptane-3,5′-oxazol]-2′-amine] |  | < 100 |  |
| c1cc(-c2cc(NC3=NC[C@@]4(C[N@@]5CC[C@@H]4C5)O3)ncn2)ccn1 [Example 18, (3R,4R)—N-(6-(Pyridin-4-yl)pyrimidin-4-yl)-4′H-1-azaspiro[bicyclo[2.2.1]heptane-3,5′-oxazol]-2′-amine] |  | < 100 |  |
| c1cn(-c2cc(NC3=NC[C@@]4(C[N@@]5CC[C@@H]4C5)O3)ncn2)cn1 [Example 19, (3R,4R)—N-(6(1H-Imidazol-1-yl)pyrimidin-4-yl)-4′H-1-azaspiro[bicyclo[2.2.1]heptane-3,5′-oxazol]-2′-amine] | 45 | < 100 |  |
| Clc1cn(-c2cc(NC3=NC[C@@]4(C[N@@]5CC[C@@H]4C5)O3)ncn2)cn1 [Example 20, (3R,4R)—N-(6-(4-Chloro-1H-imidazol-1-yl)pyrimidin-4-yl)-4′H-1-azaspiro[bicyclo[2.2.1]heptane-3,5′-oxazol]-2′-amine] | 129 | 100 to 1000 |  |
| c1nc(NC2=NC[C@@]3(C[N@@]4CC[C@@H]3C4)O2)cc(-n2cncn2)n1 [Example 21, (3R,4R)—N-(6-(1H-1,2,4-Triazol-1-yl)pyrimidin-4-yl)-4′H-1-azaspiro[bicyclo[2.2.1]heptane-3,5′-oxazol]-2′-amine] |  | < 100 |  |
